Measurements published in US9657014B2, “Substituted 1,6-naphthyridines” (Hoffmann-La Roche Inc., priority 2012, dated 2017).

Each molecule was assayed on human embryonic stem cell derived neural stem cells (NSCs) (assay: Neural stem cell proliferation assay (neurogenesis assay)). Details: Homo sapiens, Neural stem cell, 96 h; Table 1, novel compounds; concentration at which 150% activity of control (100%) is reached; ATP levels (CellTiterGlo) after 4 days incubation.
Format: cell-based
In short: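 NSCs derived from human ES cells by dual SMAD inhibition, seeded on polyornithin/laminin, dosed 4 h later (11 points, 8 μM to 8 nM). After 4 days at 37° C, ATP luminescence read; response = compound/medium control ×100, EC150 = concentration giving 150% of control.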
Work on Cc1cc2cncc(-c3ccc(C#N)cc3)c2nc1C(N)=O [Example 155, 8-(4-Cyanophenyl)-3-methyl-1,6-naphthyridine-2-carboxamide] yielded an EC (150% of control) of 0.7 µM. With NCc1ccc(-c2cncc3ccc(C(N)=O)nc23)cc1 [Example 156, 8-(4-(Aminomethyl)phenyl)-1,6-naphthyridine-2-carboxamide] the EC (150% of control) was 0.31 µM. Cc1cc2cncc(-c3ccc(C(F)(F)F)cc3)c2nc1C(N)=O [Example 157, 3-Methyl-8-[4-(trifluoromethyl)phenyl]-1,6-naphthyridine-2-carboxamide] showed an EC (150% of control) of 0.88 µM. O=C(NCCO)c1ccc2cncc(-c3ccc(Cl)cc3)c2n1 [Example 158, 8-(4-Chlorophenyl)-N-(2-hydroxyethyl)-1,6-naphthyridine-2-carboxamide] gave an EC (150% of control) of 0.09 µM. With NC(=O)c1ccc2cncc(-c3ccc(Cl)nc3)c2n1 [Example 159, 8-(6-Chloropyridin-3-yl)-1,6-naphthyridine-2-carboxamide] the EC (150% of control) was 0.18 µM. For NC(=O)c1ccc2cncc(-c3ccc(Cl)cc3Cl)c2n1 [Example 160, 8-(2,4-Dichlorophenyl)-1,6-naphthyridine-2-carboxamide], the EC (150% of control) was 0.1 µM. CC(NC(=O)c1ccc2cncc(-c3ccc(C(F)(F)F)cc3)c2n1)C(C)(C)O (centres unmarked) [Example 161, N-(3-Hydroxy-3-methylbutan-2-yl)-8-(4-(trifluoromethyl)phenyl)-1,6-naphthyridine-2-carboxamide] showed an EC (150% of control) of 0.06 µM. CC(NC(=O)c1ccc2cncc(-c3ccc(Cl)cc3)c2n1)C(C)(C)O (centres unmarked) [Example 162, 8-(4-Chlorophenyl)-N-(3-hydroxy-3-methylbutan-2-yl)-1,6-naphthyridine-2-carboxamide] showed an EC (150% of control) of 0.06 µM. With CC(NC(=O)c1ccc2cncc(-c3ccc(OCC(F)(F)F)cc3)c2n1)C(C)(C)O (centres unmarked) [Example 163, N-(3-Hydroxy-3-methylbutan-2-yl)-8-(4-(2,2,2-trifluoroethoxyl)phenyl)-1,6-naphthyridine-2-carboxamide] the EC (150% of control) was 0.07 µM. For CC(NC(=O)c1ccc2cncc(-c3cccc(OCC(F)(F)F)c3)c2n1)C(C)(C)O (centres unmarked) [Example 164, N-(3-Hydroxy-3-methylbutan-2-yl)-8-(3-(2,2,2-trifluoroethoxyl)phenyl)-1,6-naphthyridine-2-carboxamide], the EC (150% of control) was 0.76 µM. NC(=O)c1ccc2cncc(-c3ccc(OCC(F)(F)F)cc3)c2n1 [Example 165, 8-(4-(2,2,2-Trifluoroethoxyl)phenyl)-1,6-naphthyridine-2-carboxamide] gave an EC (150% of control) of 0.01 µM. NC(=O)c1ccc2cncc(-c3cccc(OCC(F)(F)F)c3)c2n1 [Example 166, 8-(3-(2,2,2-Trifluoroethoxyl)phenyl)-1,6-naphthyridine-2-carboxamide] showed an EC (150% of control) of 0.06 µM. In the case of NC(=O)c1ccc2cncc(-c3cccc(Cl)c3)c2n1 [Example 167, 8-(3-Chlorophenyl)-1,6-naphthyridine-2-carboxamide], the EC (150% of control) is reported as 0.09 µM. With NC(=O)c1ccc2cncc(-c3ccccc3Cl)c2n1 [Example 168, 8-(2-Chlorophenyl)-1,6-naphthyridine-2-carboxamide] the EC (150% of control) was 0.15 µM. Molecule NC(=O)c1ccc2cncc(-c3ccc(Cl)c(F)c3)c2n1 [Example 169, 8-(4-Chloro-3-fluorophenyl)-1,6-naphthyridine-2-carboxamide] has an EC (150% of control) of 0.03 µM. With CC(NC(=O)c1ccc2cncc(-c3ccc(Cl)c(F)c3)c2n1)C(C)(C)O (centres unmarked) [Example 170, 8-(4-Chloro-3-fluorophenyl)-N-(3-hydroxy-3-methylbutan-2-yl)-1,6-naphthyridine-2-carboxamide] the EC (150% of control) was 0.25 µM. CC(NC(=O)c1ccc2cncc(-c3ccccc3Cl)c2n1)C(C)(C)O (centres unmarked) [Example 171, 8-(2-Chlorophenyl)-N-(3-hydroxy-3-methylbutan-2-yl)-1,6-naphthyridine-2-carboxamide] showed an EC (150% of control) of 0.12 µM. CC(NC(=O)c1ccc2cncc(-c3ccc(Cl)cc3Cl)c2n1)C(C)(C)O (centres unmarked) [Example 172, 8-(2,4-Dichlorophenyl)-N-(3-hydroxy-3-methylbutan-2-yl)-1,6-naphthyridine-2-carboxamide] was tested, and the EC (150% of control) was 0.5 µM. Work on CC(NC(=O)c1ccc2cncc(-c3cc(F)c(F)c(F)c3)c2n1)C(C)(C)O (centres unmarked) [Example 173, N-(3-Hydroxy-3-methylbutan-2-yl)-8-(3,4,5-trifluorophenyl)-1,6-naphthyridine-2-carboxamide] yielded an EC (150% of control) of 0.9 µM. With CC(NC(=O)c1ccc2cncc(-c3ccc(Cl)nc3)c2n1)C(C)(C)O (centres unmarked) [Example 174, 8-(6-Chloropyridin-3-yl)-N-(3-hydroxy-3-methylbutan-2-yl)-1,6-naphthyridine-2-carboxamide] the EC (150% of control) was 0.61 µM. With CC(NC(=O)c1ccc2cncc(-c3cccc(Cl)n3)c2n1)C(C)(C)O (centres unmarked) [Example 175, 8-(6-Chloropyridin-2-yl)-N-(3-hydroxy-3-methylbutan-2-yl)-1,6-naphthyridine-2-carboxamide] the EC (150% of control) was 1.03 µM. Work on Cc1ccccc1-c1cncc2ccc(C(=O)NC(C)C(C)(C)O)nc12 (centres unmarked) [Example 176, N-(3-Hydroxy-3-methylbutan-2-yl)-8-o-tolyl-1,6-naphthyridine-2-carboxamide] yielded an EC (150% of control) of 0.28 µM.

Same assay, conditions: Homo sapiens, Neural stem cell, 96 h; Table 2, known compounds; concentration at which 150% activity of control (100%) is reached; ATP levels (CellTiterGlo) after 4 days incubation
COc1ccc(-c2cncc3ccc(C(=O)NCCCn4ccnc4)nc23)cc1 [Example 179, 8-(4-Methoxy-phenyl)-[1,6]naphthyridine-2-carboxylic acid (3-imidazol-1-yl-propyl)-amide] gave an EC (150% of control) of 0.7 µM. Work on COc1ccc(-c2cncc3ccc(C(=O)NCc4cnc(C)cn4)nc23)cc1 [Example 180, 8-(4-Methoxy-phenyl)-[1,6]naphthyridine-2-carboxylic acid (5-methyl-pyrazin-2-ylmethyl)-amide] yielded an EC (150% of control) of 1.26 µM. Molecule COc1ccc(-c2cncc3ccc(C(=O)NCc4ccncc4)nc23)cc1 [Example 181, 8-(4-Methoxy-phenyl)-[1,6]naphthyridine-2-carboxylic acid (pyridin-4-ylmethyl)-amide] has an EC (150% of control) of 0.04 µM. In the case of COc1ccc(-c2cncc3ccc(C(=O)N4CCOCC4)nc23)cc1 [Example 182, [8-(4-Methoxy-phenyl)-[1,6]naphthyridin-2-yl]-morpholin-4-yl-methanone], the EC (150% of control) is reported as 5.4 µM. In the case of COc1ccc(-c2cncc3ccc(C(=O)N4CCCCC4)nc23)cc1 [Example 183, [8-(4-Methoxy-phenyl)-[1,6]naphthyridin-2-yl]-piperidin-1-yl-methanone], the EC (150% of control) is reported as 1.25 µM. COc1ccc(-c2cncc3ccc(C(=O)NCc4ccccc4)nc23)cc1 [Example 184, 8-(4-Methoxy-phenyl)-[1,6]naphthyridine-2-carboxylic acid benzylamide] gave an EC (150% of control) of 0.16 µM. COc1ccc(-c2cncc3ccc(C(=O)N4CCN(c5ccccn5)CC4)nc23)cc1 [Example 185, [8-(4-Methoxy-phenyl)-[1,6]naphthyridin-2-yl]-(4-pyridin-2-yl-piperazin-1-yl)-methanone] gave an EC (150% of control) of 0.8 µM. COc1ccc(-c2cncc3ccc(C(=O)NCc4ccc(C(F)(F)F)nc4)nc23)cc1 [Example 186, 8-(4-Methoxy-phenyl)-[1,6]naphthyridine-2-carboxylic acid (6-trifluoromethyl-pyridin-3-ylmethyl)-amide] was tested, and the EC (150% of control) was 0.67 µM. Molecule COc1ccc(-c2cncc3ccc(C(=O)N4CCN(Cc5nc(OC)cc(OC)n5)CC4)nc23)cc1 [Example 187, [4-(4,6-Dimethoxy-pyrimidin-2-ylmethyl)-piperazin-1-yl]-[8-(4-methoxy-phenyl)-[1,6]naphthyridin-2-yl]-methanone] has an EC (150% of control) of 0.71 µM. O=C(NCCCN1CCOCC1)c1ccc2cncc(-c3ccccc3)c2n1 [Example 188, 8-Phenyl-[1,6]naphthyridine-2-carboxylic acid (3-morpholin-4-yl-propyl)-amide] showed an EC (150% of control) of 6.8 µM. For O=C(NCCCn1ccnc1)c1ccc2cncc(-c3ccccc3)c2n1 [Example 189, 8-Phenyl-[1,6]naphthyridine-2-carboxylic acid (3-imidazol-1-yl-propyl)-amide], the EC (150% of control) was 1.2 µM. Work on Cc1cnc(CNC(=O)c2ccc3cncc(-c4ccccc4)c3n2)cn1 [Example 190, 8-Phenyl-[1,6]naphthyridine-2-carboxylic acid (5-methyl-pyrazin-2-ylmethyl)-amide] yielded an EC (150% of control) of 0.5 µM. O=C(NCc1ccccc1)c1ccc2cncc(-c3ccccc3)c2n1 [Example 191, 8-Phenyl-[1,6]naphthyridine-2-carboxylic acid benzylamide] gave an EC (150% of control) of 0.44 µM. For O=C(c1ccc2cncc(-c3ccccc3)c2n1)N1CCN(c2ccccn2)CC1 [Example 192, (8-Phenyl-[1,6]naphthyridin-2-yl)-(4-pyridin-2-yl-piperazin-1-yl)-methanone], the EC (150% of control) was 1.4 µM. With O=C(NC1CCN(Cc2ccccc2)CC1)c1ccc2cncc(-c3ccccc3)c2n1 [Example 193, 8-Phenyl-[1,6]naphthyridine-2-carboxylic acid (1-benzyl-piperidin-4-yl)-amide] the EC (150% of control) was 1.9 µM. COc1ccccc1CNC(=O)c1ccc2cncc(-c3ccccc3)c2n1 [Example 194, 8-Phenyl-[1,6]naphthyridine-2-carboxylic acid 2-methoxy-benzylamide] showed an EC (150% of control) of 0.73 µM. CS(=O)(=O)c1ccc(CNC(=O)c2ccc3cncc(-c4ccccc4)c3n2)cc1 [Example 195, 8-Phenyl-[1,6]naphthyridine-2-carboxylic acid 4-methanesulfonyl-benzylamide] showed an EC (150% of control) of 4 µM. O=C(NCc1ccc(C(F)(F)F)nc1)c1ccc2cncc(-c3ccccc3)c2n1 [Example 196, 8-Phenyl-[1,6]naphthyridine-2-carboxylic acid (6-trifluoromethyl-pyridin-3-ylmethyl)-amide] gave an EC (150% of control) of 3.7 µM. O=C(NCCCn1ccnc1)c1ccc2cncc(-c3ccsc3)c2n1 [Example 197, 8-Thiophen-3-yl-[1,6]naphthyridine-2-carboxylic acid (3-imidazol-1-yl-propyl)-amide] was tested, and the EC (150% of control) was 1.98 µM.
